Legend:
[1] = target: D(2) dopamine receptor (Homo sapiens, UniProt P14416); assay: Ability to inhibit the binding of [3H]spiperone to the Dopamine receptor D2L in COS7 cells; type: cell-based, COS-7
[2] = target: T1, D(4) dopamine receptor (Homo sapiens, UniProt P21917); assay: Ability to inhibit the binding of [3H]spiperone to the Dopamine receptor D4 in COS7 cells; type: cell-based, COS-7
T1 sequence (P21917 whole entry): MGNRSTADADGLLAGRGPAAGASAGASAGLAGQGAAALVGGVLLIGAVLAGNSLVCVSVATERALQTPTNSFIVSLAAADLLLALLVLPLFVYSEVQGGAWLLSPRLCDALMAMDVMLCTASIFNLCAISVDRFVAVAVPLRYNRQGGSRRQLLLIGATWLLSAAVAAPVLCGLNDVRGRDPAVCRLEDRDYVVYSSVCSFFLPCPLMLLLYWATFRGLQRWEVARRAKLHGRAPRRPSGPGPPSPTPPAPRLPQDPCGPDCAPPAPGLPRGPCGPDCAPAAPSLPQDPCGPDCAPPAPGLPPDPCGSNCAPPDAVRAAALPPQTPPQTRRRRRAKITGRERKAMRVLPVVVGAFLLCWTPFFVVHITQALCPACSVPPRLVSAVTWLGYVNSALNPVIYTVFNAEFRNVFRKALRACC

[3] = target: T2, 5-hydroxytryptamine receptor 2A (Rattus norvegicus, UniProt P14842); assay: Ability to inhibit the binding of iodine-125-labelled lysergic acid diethylamide([125I]-LSD) to the S-2A serotonin receptor.
T2 sequence (P14842 whole entry): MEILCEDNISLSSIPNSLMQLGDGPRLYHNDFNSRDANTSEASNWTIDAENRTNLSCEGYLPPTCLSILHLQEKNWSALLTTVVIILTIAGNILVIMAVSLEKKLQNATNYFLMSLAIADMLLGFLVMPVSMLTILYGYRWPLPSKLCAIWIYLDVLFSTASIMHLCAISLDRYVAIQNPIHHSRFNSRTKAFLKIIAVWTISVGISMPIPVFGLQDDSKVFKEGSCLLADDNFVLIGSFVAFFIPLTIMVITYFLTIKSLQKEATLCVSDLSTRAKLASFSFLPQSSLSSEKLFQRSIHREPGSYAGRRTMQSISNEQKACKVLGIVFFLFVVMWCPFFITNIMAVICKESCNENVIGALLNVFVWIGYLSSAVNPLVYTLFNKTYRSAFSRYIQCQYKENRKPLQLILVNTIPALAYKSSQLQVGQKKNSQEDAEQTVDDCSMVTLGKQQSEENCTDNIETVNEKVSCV

[4] = target: T3, 5-hydroxytryptamine receptor 2C (Rattus norvegicus, UniProt P08909); assay: Ability to inhibit the binding of iodine-125-labelled lysergic acid diethylamide([125I]-LSD) to the S-2C serotonin receptor.
T3 sequence (P08909 whole entry): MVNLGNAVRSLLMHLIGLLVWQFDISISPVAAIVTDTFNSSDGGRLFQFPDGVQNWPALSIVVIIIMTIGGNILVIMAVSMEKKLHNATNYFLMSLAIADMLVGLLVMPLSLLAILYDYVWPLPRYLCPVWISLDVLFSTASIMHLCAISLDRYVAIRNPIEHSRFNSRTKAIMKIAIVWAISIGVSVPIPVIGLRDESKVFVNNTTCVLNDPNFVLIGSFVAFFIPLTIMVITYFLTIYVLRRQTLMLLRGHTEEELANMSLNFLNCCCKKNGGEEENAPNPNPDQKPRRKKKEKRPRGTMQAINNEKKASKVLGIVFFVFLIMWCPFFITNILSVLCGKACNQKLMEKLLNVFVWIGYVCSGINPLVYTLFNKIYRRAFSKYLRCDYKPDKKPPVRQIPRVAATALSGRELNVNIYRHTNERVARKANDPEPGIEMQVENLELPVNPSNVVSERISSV

[5] = Ratio of Ki value towards dopamine D2L receptor to that of serotonin S-2A receptor.
[6] = target: T2, 5-hydroxytryptamine receptor 2A; assay: Ability to inhibit the binding of iodine-125-labelled lysergic acid diethylamide([125I]-LSD) to the S-2A serotonin receptor in NIH3T3 cell line membranes; type: cell-based
[7] = target: T3, 5-hydroxytryptamine receptor 2C; assay: Ability to inhibit the binding of iodine-125-labelled lysergic acid diethylamide([125I]-LSD) to the S-2C serotonin receptor in NIH3T3 cell line membranes; type: cell-based

Chain of D(2) dopamine receptor (P14416 whole entry): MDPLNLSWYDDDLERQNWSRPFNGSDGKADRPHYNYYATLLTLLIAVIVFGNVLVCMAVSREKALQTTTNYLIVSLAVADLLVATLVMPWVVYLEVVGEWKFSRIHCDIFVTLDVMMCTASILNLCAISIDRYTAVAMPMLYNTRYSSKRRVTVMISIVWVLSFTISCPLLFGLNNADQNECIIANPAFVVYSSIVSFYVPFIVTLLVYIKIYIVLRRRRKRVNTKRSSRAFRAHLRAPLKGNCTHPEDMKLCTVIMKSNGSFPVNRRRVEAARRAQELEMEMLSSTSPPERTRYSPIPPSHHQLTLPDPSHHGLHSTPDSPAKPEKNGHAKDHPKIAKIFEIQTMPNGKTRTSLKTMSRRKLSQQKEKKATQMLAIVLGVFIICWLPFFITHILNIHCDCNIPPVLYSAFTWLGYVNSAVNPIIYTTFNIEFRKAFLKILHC

Row | Ki [1] | Ki [2] | Ki [3] | Ki [4] | Ratio [5] | Ki [6] | Ki [7] | SMILES
1 | 44 nM | 28 nM | 4.5 nM | 7 nM | 9.8 |  |  | CCN1CC=C(C2=Cc3ccccc3Cc3ccccc32)CC1
2 |  | 29 nM |  |  |  | 6 nM | 20 nM | CN1CC=C(C2=Cc3ccccc3Oc3ccccc32)CC1
3 | 82 nM | 9.5 nM |  |  | 30 | 3 nM | 8 nM | CN1CCC(C2=Cc3ccccc3Oc3ccccc32)CC1
4 | 61 nM | 26 nM |  |  | 10 | 6 nM | 14 nM | CCN1CC=C(C2=Cc3ccccc3Oc3ccccc32)CC1
5 | 110 nM | 37 nM |  |  | 5 | 22 nM | 51 nM | C=CCN1CC=C(C2=Cc3ccccc3Oc3ccccc32)CC1
6 | 83 nM | 60 nM | 20 nM | 46 nM | 4.2 |  |  | C=CCN1CC=C(C2=Cc3ccccc3Cc3ccccc32)CC1
7 |  |  |  |  | 0.8 |  |  | CN1CCN(C2=Cc3ccccc3Oc3ccc(Cl)cc32)CC1
8 |  |  |  |  | 0.48 |  |  | CC(C)=C1c2ccccc2C=C(C2=CCN(C)CC2)c2ccccc21
9 |  |  |  |  | 9.4 |  |  | CC1c2ccccc2C=C(C2=CCN(C)CC2)c2ccccc21 (configuration not stated)
10 | 440 nM | 100 nM | 760 nM | 1200 nM | 0.58 |  |  | CC(C)=C1c2ccccc2C=C(C2=CCN(C)CC2)c2cc(Cl)ccc21
11 |  |  |  |  | 5 |  |  | CN1CCN(C2=Cc3ccccc3Oc3ccccc32)CC1
12 | 89 nM | 12 nM | 6 nM | 14 nM | 15 |  |  | CN1CC=C(C2=Cc3ccccc3Cc3ccccc32)CC1

— ChEMBL document CHEMBL1128570, “Binding of 5H-dibenzo[a,d]cycloheptene and dibenz[b,f]oxepin analogues of clozapine to dopamine and serotonin receptors” (J Med Chem, 1995)
